Drawing on ChEMBL document CHEMBL3045469, “Design, synthesis and preliminary evaluation of some novel [1,4]diazepino [5,6-b]pyrrolizine and 6-(2-oxopyrrolidino)-1H-pyrrolizine derivatives as anticonvulsant agents” (Med Chem Res, 2011), this text covers ED50, Activity and LD50 for 16 molecules.

For series [1], the system named is Mus musculus. Briefly: Anticonvulsant activity in ip dosed Mus musculus Swiss albino (mouse) assessed as protection against pentylenetetrazole-induced seizures administered 1 hr prior to pentylenetetrazole-challenge measured up to 1 hr. It counts as functional. Conditions: read-out: PD50.
Series [2] deals with Mus musculus. Briefly: Anticonvulsant activity in Mus musculus Swiss albino (mouse) assessed as protection against pentylenetetrazole-induced seizures at 50 mg/kg, ip administered 1 hr prior to pentylenetetrazole-challenge measured up to 1 hr relative to control. It counts as functional. Conditions: route intraperitoneal.
Series [3] concerns Mus musculus. Briefly: Anticonvulsant activity in Mus musculus Swiss albino (mouse) assessed as protection against pentylenetetrazole-induced seizures at 75 mg/kg, ip administered 1 hr prior to pentylenetetrazole-challenge measured up to 1 hr relative to control. It is filed as functional. To be noted: route intraperitoneal.
The test system of series [4] is Mus musculus. In words: Anticonvulsant activity in Mus musculus Swiss albino (mouse) assessed as protection against pentylenetetrazole-induced seizures at 100 mg/kg, ip administered 1 hr prior to pentylenetetrazole-challenge measured up to 1 hr relative to control. It is filed as functional. Conditions: route intraperitoneal.
In series [5] the test system is Mus musculus. Briefly: Anticonvulsant activity in ip dosed Mus musculus Swiss albino (mouse) assessed as protection against pentylenetetrazole-induced seizures administered 1 hr prior to pentylenetetrazole-challenge measured up to 1 hr relative to phenobarbital. It counts as functional.
The subject of series [6] is Mus musculus. In words: Toxicity in Mus musculus albino (mouse) assessed as mortality at 300 mg/kg, ip after 24 hr. It is filed as organism-based. Conditions: in vivo. Set-up: dose 300 mg/kg, route intraperitoneal.
Series [7] in a line: Toxicity in ip dosed Mus musculus albino (mouse) after 24 hr. It counts as organism-based. To be noted: in vivo.
Series [8] concerns Mus musculus. In words: Toxicity in Mus musculus albino (mouse) assessed as mortality at 600 to 2400 mg/kg, ip after 24 hr. It counts as organism-based. Set-up: dose 600-2400 mg/kg, route intraperitoneal. Conditions: in vivo.
For series [9], the system named is Mus musculus. In words: Anticonvulsant activity in Mus musculus Swiss albino (mouse) assessed as protection against pentylenetetrazole-induced seizures at 30 mg/kg, ip administered 1 hr prior to pentylenetetrazole-challenge measured up to 1 hr relative to control. It is filed as functional. Conditions: route intraperitoneal.
Series [10] has as its system Mus musculus. In words: Anticonvulsant activity in Mus musculus Swiss albino (mouse) assessed as protection against pentylenetetrazole-induced seizures at 10 mg/kg, ip administered 1 hr prior to pentylenetetrazole-challenge measured up to 1 hr relative to control. It counts as functional. To be noted: route intraperitoneal.
Series [11] has as its system Mus musculus. In words: Anticonvulsant activity in Mus musculus Swiss albino (mouse) assessed as protection against pentylenetetrazole-induced seizures at 20 mg/kg, ip administered 1 hr prior to pentylenetetrazole-challenge measured up to 1 hr relative to control. It is filed as functional. Conditions: route intraperitoneal.
The subject of series [12] is Mus musculus. Briefly: Toxicity in Mus musculus albino (mouse) assessed as mortality at 160 to 400 mg/kg, ip after 24 hr. It is filed as organism-based. Set-up: dose 160-400 mg/kg, route intraperitoneal. To be noted: in vivo.
Series [13] concerns Mus musculus. In words: Toxicity in Mus musculus albino (mouse) assessed as mortality at 100 mg/kg, ip after 24 hr. Set-up: dose 100 mg/kg, route intraperitoneal. Conditions: in vivo. It counts as organism-based.

Broadly, the LD50 is the dose expected to kill half of the subjects tested. A lower LD50 goes with a more toxic substance.

In the case of `N#Cc1c(NC(=O)CCCCl)c(C(=O)Nc2ccc(Cl)cc2)n2c1CCC2`, the ED50 in series [1] was 117 mg/kg. Also, the Activity came out at 20% in series [2], 40% in [3], 40% in series [4] and 19.7% in series [5].

With `N#Cc1c(N2CCCC2=O)c(C(=O)Nc2ccccc2)n2c1CCC2`, the ED50 in series [1] was determined as 55.6 mg/kg. Besides, the Activity in series [2] was found to be 60%; in series [3], 20%; in series [4], 0%; in [5], 34.2%.

Consider `Cc1ccc(NC(=O)c2c(N3CCCC3=O)c(C#N)c3n2CCC3)cc1`, for which, in series [1], the ED50 was 29.2 mg/kg. The Activity result in series [6] was “Non-toxic”; in series [2], 40%; in series [3], 0%; in series [4] it was 0%; in [5], 67.9%; in series [8], “Toxic”. Moreover, in [7], the LD50 at 24 h was found to be 1010 mg/kg.

For the molecule `N#Cc1c(N2CCCC2=O)c(C(=O)Nc2ccc(Cl)cc2)n2c1CCC2`, the ED50 in series [1] was 37.5 mg/kg. The Activity in series [2] was 40%; in series [3], 20%; in [4], 0%; in series [5], 55.8%.

Turning to `N#Cc1c(NC(=O)CCl)c(C(=O)Nc2ccccc2)n2c1CCC2`, the ED50 in series [1] amounted to 112 mg/kg. Further, the Activity in series [2] amounted to 0%; in series [3], 20%; in [4], 40%; in series [5], 17.3%.

In the case of `Cc1ccc(NC(=O)c2c(NC(=O)CCl)c(C#N)c3n2CCC3)cc1`, the ED50 in series [1] came to 117 mg/kg. The Activity amounted to 20% in [2], 40% in series [3], 40% in [4] and 17.4% in [5].

Consider `N#Cc1c(NC(=O)CCl)c(C(=O)Nc2ccc(Cl)cc2)n2c1CCC2`, for which, in series [1], the ED50 worked out at 88.9 mg/kg. Further, the Activity stood at 0% in [2], 40% in series [3], 60% in series [4] and 24.1% in series [5].

For the molecule `N#Cc1c2c(n3c1CCC3)C(=O)N(c1ccccc1)CC(=O)N2`, the ED50 in series [1] worked out at 117 mg/kg. Moreover, the Activity was 20% in series [2], 40% in series [3], 40% in series [4] and 14.9% in series [5].

`Cc1ccc(N2CC(=O)Nc3c(C#N)c4n(c3C2=O)CCC4)cc1`: the ED50 in series [1] turned out to be 167 mg/kg. For the same molecule, the Activity in [2] is 0%; in series [3], 20%; in [4], 20%; in series [5], 10.9%.

Take `N#Cc1c2c(n3c1CCC3)C(=O)N(c1ccc(Cl)cc1)CC(=O)N2`: the ED50 in series [1] is 183 mg/kg. Further, the Activity in [2] came out at 0%; in series [3], 0%; in [4] it was 20%; in series [5], 10.6%.

Consider `CN1C(=O)CN(c2ccccc2)C(=O)c2c1c(C#N)c1n2CCC1`, for which, in series [1], the ED50 turned out to be 112 mg/kg. Moreover, the Activity in series [2] worked out at 0%; in [3], 20%; in series [4] it was 40%; in series [5], 16.2%.

Turning to `Cc1ccc(N2CC(=O)N(C)c3c(C#N)c4n(c3C2=O)CCC4)cc1`, the ED50 in series [1] stood at 167 mg/kg. The Activity in series [2] was found to be 0%; in series [3], 20%; in series [4] it was 20%; in [5], 11.4%.

In the case of `CN1C(=O)CN(c2ccc(Cl)cc2)C(=O)c2c1c(C#N)c1n2CCC1`, the ED50 in series [1] was determined as 133 mg/kg. Besides, the Activity came out at 20% in series [2], 20% in [3], 40% in series [4] and 15.1% in series [5].

Consider `N#Cc1c(NC(=O)CCCCl)c(C(=O)Nc2ccccc2)n2c1CCC2`, for which the ED50 in series [1] is 88.9 mg/kg. Besides, the Activity in series [2] was found to be 0%; in series [3] it was 40%; in series [4] it was 60%; in series [5], 23.7%.

As for `Cc1ccc(NC(=O)c2c(NC(=O)CCCCl)c(C#N)c3n2CCC3)cc1`, in series [1], the ED50 is 112 mg/kg. In addition, the Activity was 0% in series [2], 20% in series [3], 40% in series [4] and 19.4% in series [5].

In the case of `CCC1(c2ccccc2)C(=O)NC(=O)NC1=O` [PHENOBARBITAL], the Activity in series [9] is recorded as 100%; in series [10] it was 40%; in [11], 60%; in series [12], “Toxic”; in series [13], “Non-toxic”. For the same molecule, in series [1], the ED50 was found to be 14.4 mg/kg. The molecule further registered a median lethal dose (LD50) at 24 h in [7] of 251 mg/kg.
